Assay results reported in patent publication US20240335371A1, “MAGNESIUM SULFATE AND FORSKOLIN FOR TREATMENT OF SEXUAL DISORDERS AND BENIGN PROSTATIC HYPERPLASIA” (State-of-the-Art Technologies, Inc., priority 2023, published 2024).
Where two headings read alike, the source gives them in different places.

Experiments:
female low libido = conditions: cited from earlier work; for side effects: in vivo
ED = conditions: cited from earlier work
[1] = tested on: penis or female genitalia; experiment: Topical or transdermal administration of magnesium sulfate or forskolin to male and female subjects
From the text: The composition is generally applied generously to the penis and massaged thoroughly. In females, the composition may be applied to the female genitals and massaged. In various embodiments, the composition may also be applied on a penis or sex toy or suppository inserted into the vagina or ano-rectal region, or as a condom lubricant, penile lubricant, vaginal lubricant or anal lubricant.

[2] = cited from earlier work

## CCCC[C@H](NC(C)=O)C(=O)N[C@H]1CC(=O)NCCCC[C@@H](C(=O)O)NC(=O)[C@H](Cc2c[nH]c3ccccc23)NC(=O)[C@H](CCCN=C(N)N)NC(=O)[C@@H](Cc2ccccc2)NC(=O)[C@H](Cc2cnc[nH]2)NC1=O [Bremelanotide]
Female low libido
  side effects: Nausea is a common side effect
Female low libido; self-administered injection about 45 minutes before a sexual encounter
  effect on number of satisfying sexual events compared to placebo: minimal effect

## CCCCC[C@H](O)/C=C/[C@H]1[C@H](O)CC(=O)[C@@H]1CCCCCCC(=O)O [alprostadil]
ED; intraurethral deposition
  efficacy in ED: not effective in all patients

## CN1CCc2cccc3c2[C@H]1Cc1ccc(O)c(O)c1-3 [apomorphine]
ED; oral and sublingual therapies
  efficacy in ED: neither compound has demonstrated efficacy across a broad range of subjects

## O=c1[nH]c2ccccc2n1CCN1CCN(c2cccc(C(F)(F)F)c2)CC1 [flibanserin]
Female low libido
  side effects: sleepiness and fainting
Female low libido; oral pill taken daily
  effect compared to placebo: minimal compared to placebo

## C=C[C@@]1(C)CC(=O)[C@]2(O)[C@@]3(C)[C@@H](O)CCC(C)(C)[C@@H]3[C@H](O)[C@H](OC(C)=O)[C@@]2(C)O1 [forskolin, 7beta-acetoxy-8, 13-epoxy-1a, 6β, 9a-trihydroxy-labd-14-en-11-one]
[1]; human, in vivo
  systemic side effects or drug interactions: no systemic side effects or drug interactions
[2]
  lipid solubility: lipid-soluble
[2]; water
  solubility in water: water soluble

## O=[N+]([O-])OCC(CO[N+](=O)[O-])O[N+](=O)[O-] [glyceryl trinitrate (GTN), glyceryl trinitrate]
ED; patches applied to the penis
  efficacy in ED and side effects: effective but produces side effects in both patient and partner

## O=S(=O)([O-])[O-].[Mg+2] [magnesium sulfate]
[1]; administered topically or by transdermal delivery
  systemic side effects or drug interactions: no systemic side effects or drug interactions
[1]; topical administration
  taste of magnesium in mouth after topical administration (increased blood levels): tasted magnesium in their mouth within one minute
[1]; topical or transdermal administration, males and females
  testosterone and libido: increased testosterone with increased libido in both males and females lasting for several weeks
[1]; topical or transdermal application to the penis
  increase in penile length, size and turgidity versus control gel (KY jelly): significantly exceeds that obtained by topical or transdermal application of a control gel

## Cc1ccc(N(CC2=NCCN2)c2cccc(O)c2)cc1 [phentolamine]
ED; oral and sublingual therapies
  efficacy in ED: neither compound has demonstrated efficacy across a broad range of subjects
